{
  "source": "patent US20180030091A1",
  "about": "“COLLAGEN-BINDING SYNTHETIC PEPTIDOGLYCANS FOR USE IN VASCULAR INTERVENTION” (Purdue Research Foundation, priority 2010, published 2018)",
  "key": {"[1]": {"molecular_target": "Fibrillar collagen", "test": "Binding affinity of biotin labeled peptidoglycan to fibrillar collagen", "details": "biotin labeled peptidoglycans, fitted saturation binding curves", "method": "Fibrillar collagen (Chronolog, Havertown, Pa.) was coated onto the surface of a 96-well high bind plate (Costar) at a concentration of 50 μg/mL diluted in isotonic glucose. Plates were covered and incubated overnight at 4° C. Unbound collagen was removed by rinsing 3 times with 1×PBS pH 7.4. Plates were then blocked with 1% BSA for 3 hours at room temperature. Peptidoglycan was dissolved at varying concentrations in 1×PBS pH 7.4 containing 1% BSA and were immediately added to the collagen surfaces, and allowed to incubate for 15 min at room temperature. Plates were then rinsed 3 times with 1×PBS pH 7.4 containing 1% BSA. Streptavidin-HRP solution (R&D Systems, Minneapolis, Minn.) was then added to the plates and incubated for 20 minutes at room temperature. […] The color evolving reaction was stopped with 50 μL 2N sulfuric acid and absorbance was measured at 450 nm using an M5 UV Vis Spectrophotometer (Molecular Devices). Plate imperfections (540 nm) were subtracted from absorbance values.\nThe binding affinities of biotin labeled peptidoglycans, labeled using protocols known in the art, DS-SILY4 and DS-SILY18 were calculated by fitting the saturation binding curves and calculating the inflection point. […]"}, "[2]": {"tested_on": "collagen", "test": "Cryo-SEM measurement of fibril diameters", "details": "cryo-SEM images at 20,000×", "method": "Using a modification of EXAMPLE 18 fibril diameters were measured by 8cryo-SEM. Fibril diameters from cryo-SEM images taken at 20,000× were measured using ImageJ software (NIH). At least 45 fibrils were measured for each treatment. Results are presented as Avg.±S.E. Statistical analysis was performed using DesignExpert software (StatEase) with α=0.05."}, "[3]": {"tested_on": "Human coronary artery smooth muscle cells (HCA SMC)", "test": "Gel compaction by smooth muscle cells in collagen gels", "type": "cell-based", "method": "Human coronary artery smooth muscle cells (HCA SMC) (Cascade Biologics) were cultured in growth medium (Medium 231 supplemented with smooth muscle growth factor). Cells from passage 3 were used for all experiments. Differentiation medium (Medium 231 supplemented with 1% FBS and 1×pen/strep) was used for all experiments unless otherwise noted.\nCollagen gels were prepared with each additive as described with the exception that the 1×PBS sample addition was omitted to accommodate the addition of cells in media. After incubating on ice for 30 min, HCA SMCs in differentiation medium were added to the gel solutions to a final concentration of 1×10^6 cells/mL. Gels were formed in quadruplicate in 48-well non-tissue culture treated plates (Costar) for 6 hrs before adding 500 μL/well differentiation medium. Gels were freed from the well edges after 24 hrs. Medium was changed every 2-3 days and images for compaction were taken at the same time points using a Gel Doc System (Bio-Rad). The cross-sectional area of circular gels correlating to degree of compaction was determined using ImageJ software (NIH). Gels containing no cells were used as a negative control and cells in collagen gels absent additive were used as a positive control. By day 10 all gels had compacted to approximately 10% of the original gel area, and differences between additives were small."}, "[4]": {"tested_on": "collagen", "test": "SILY binding to collagen (Biacore surface plasmon resonance)", "method": "Biacore studies were performed on a Biacore 2000 using a CM-3 chip (Biacore, Inc., Piscataway, N.J.). The CM-3 chip is coated with covalently attached carboxymethylated dextran, which allows for attachment of the substrate collagen via free amine groups. Flow cells (FCs) 1 and 2 were used, with FC-1 as the reference cell and FC-2 as the collagen immobilized cell. Each FC was activated with EDC-NHS, and 1500 RU of collagen was immobilized on FC-2 by flowing 1 mg/mL collagen in sodium acetate, pH 4, buffer at 5 μL/min for 10 min. Unreacted […] sites were capped with ethanolamine; the control FC-1 was activated and capped with ethanolamin.\nTo determine peptide binding affinity, SILY was dissolved in 1×HBS-EP buffer (Biacore) at varying concentrations from 100 μM to 1.5 μm in 2-fold dilutions. […] The first 10 injections were buffer injections, which help to prime the system, followed by randomized sample injections, run in triplicate. Analysis was performed using BIAevaluation software (Biacore)."}, "[5]": {"tested_on": "Human aortic smooth muscle cells", "test": "Collagen remodeling: hydroxyproline content in medium of cell-seeded collagen gels", "type": "cell-based", "details": "up to 30 days", "method": "Following a method by Grassl, et al. (Grassl, et al., Journal of Biomedical Materials Research 2002, 60, (4), 607-612), which is herein incorporated in its entirety, collagen gels with or without synthetic PG mimics were formed as described in EXAMPLE 15. Human aortic smooth muscle cells (Cascade Biologics, Portland, Oreg.) were seeded within collagen gels by adding 4×10^6 cells/mL to the neutralized collagen solution prior to incubation. The cell-collagen solutions were pipetted into an 8-well Lab-Tek chamber slide and incubated in a humidified 37° C. and 5% CO2 incubator. After gelation, the cell-collagen gels will be covered with 1 mL Medium 231 as prescribed by Cascade. Every 3-4 days, the medium was removed from the samples and the hydroxyproline content measured by a standard hydroxyproline assay (Reddy, 1996).\nTo measure degraded collagen in the supernatant medium, the sample was lyophilized, the sample hydrolyzed in 2 M NaOH at 120° C. for 20 min. After cooling, free hydroxyproline was oxidized by adding chloramine-T (Sigma) and reacting for 25 min at room temperature. Ehrlich's aldehyde reagent (Sigma) was added and allowed to react for 20 min at 65° C. and followed by reading the absorbance at 550 nm on an M-5 spectrophotometer (Molecular Devices). […] Cultures were incubated for up to 30 days and three samples of each treatment measured. […]"}, "[6]": {"molecular_target": "T1, collagen (Bos taurus, UniProt P02453+P02465)", "T1 construct": "purchased Inamed, Freemont, Calif; (Nutragen)", "T1 sequence (P02453 162-1217 limits assumed)": "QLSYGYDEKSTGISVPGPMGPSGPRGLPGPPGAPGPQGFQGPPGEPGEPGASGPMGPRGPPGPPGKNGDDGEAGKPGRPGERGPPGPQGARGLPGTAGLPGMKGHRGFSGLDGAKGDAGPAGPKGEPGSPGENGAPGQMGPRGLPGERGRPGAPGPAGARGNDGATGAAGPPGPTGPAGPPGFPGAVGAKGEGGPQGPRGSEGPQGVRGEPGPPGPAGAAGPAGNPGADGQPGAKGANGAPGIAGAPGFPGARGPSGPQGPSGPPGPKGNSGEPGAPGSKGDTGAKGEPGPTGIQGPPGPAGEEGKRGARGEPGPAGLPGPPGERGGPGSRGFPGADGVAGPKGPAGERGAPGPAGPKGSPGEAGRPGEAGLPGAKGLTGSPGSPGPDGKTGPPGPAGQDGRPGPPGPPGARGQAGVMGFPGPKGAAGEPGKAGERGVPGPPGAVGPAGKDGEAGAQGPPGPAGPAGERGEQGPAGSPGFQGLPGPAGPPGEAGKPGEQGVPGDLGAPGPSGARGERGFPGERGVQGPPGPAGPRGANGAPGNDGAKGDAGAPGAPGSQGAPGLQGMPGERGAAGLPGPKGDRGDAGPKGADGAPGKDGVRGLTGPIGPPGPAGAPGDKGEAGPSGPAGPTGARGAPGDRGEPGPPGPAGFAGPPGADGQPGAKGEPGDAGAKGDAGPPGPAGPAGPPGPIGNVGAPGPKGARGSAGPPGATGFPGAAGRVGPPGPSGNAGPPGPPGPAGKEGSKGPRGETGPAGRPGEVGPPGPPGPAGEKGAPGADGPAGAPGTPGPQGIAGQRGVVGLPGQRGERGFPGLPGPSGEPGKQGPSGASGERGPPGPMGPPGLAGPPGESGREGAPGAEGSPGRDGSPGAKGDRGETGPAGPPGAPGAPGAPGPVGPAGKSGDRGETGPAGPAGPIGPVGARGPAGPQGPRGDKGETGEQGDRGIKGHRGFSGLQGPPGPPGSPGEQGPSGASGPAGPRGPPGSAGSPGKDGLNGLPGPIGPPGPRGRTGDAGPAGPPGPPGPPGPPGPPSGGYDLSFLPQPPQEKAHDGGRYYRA", "T1 sequence (P02465 80-1117 limits assumed)": "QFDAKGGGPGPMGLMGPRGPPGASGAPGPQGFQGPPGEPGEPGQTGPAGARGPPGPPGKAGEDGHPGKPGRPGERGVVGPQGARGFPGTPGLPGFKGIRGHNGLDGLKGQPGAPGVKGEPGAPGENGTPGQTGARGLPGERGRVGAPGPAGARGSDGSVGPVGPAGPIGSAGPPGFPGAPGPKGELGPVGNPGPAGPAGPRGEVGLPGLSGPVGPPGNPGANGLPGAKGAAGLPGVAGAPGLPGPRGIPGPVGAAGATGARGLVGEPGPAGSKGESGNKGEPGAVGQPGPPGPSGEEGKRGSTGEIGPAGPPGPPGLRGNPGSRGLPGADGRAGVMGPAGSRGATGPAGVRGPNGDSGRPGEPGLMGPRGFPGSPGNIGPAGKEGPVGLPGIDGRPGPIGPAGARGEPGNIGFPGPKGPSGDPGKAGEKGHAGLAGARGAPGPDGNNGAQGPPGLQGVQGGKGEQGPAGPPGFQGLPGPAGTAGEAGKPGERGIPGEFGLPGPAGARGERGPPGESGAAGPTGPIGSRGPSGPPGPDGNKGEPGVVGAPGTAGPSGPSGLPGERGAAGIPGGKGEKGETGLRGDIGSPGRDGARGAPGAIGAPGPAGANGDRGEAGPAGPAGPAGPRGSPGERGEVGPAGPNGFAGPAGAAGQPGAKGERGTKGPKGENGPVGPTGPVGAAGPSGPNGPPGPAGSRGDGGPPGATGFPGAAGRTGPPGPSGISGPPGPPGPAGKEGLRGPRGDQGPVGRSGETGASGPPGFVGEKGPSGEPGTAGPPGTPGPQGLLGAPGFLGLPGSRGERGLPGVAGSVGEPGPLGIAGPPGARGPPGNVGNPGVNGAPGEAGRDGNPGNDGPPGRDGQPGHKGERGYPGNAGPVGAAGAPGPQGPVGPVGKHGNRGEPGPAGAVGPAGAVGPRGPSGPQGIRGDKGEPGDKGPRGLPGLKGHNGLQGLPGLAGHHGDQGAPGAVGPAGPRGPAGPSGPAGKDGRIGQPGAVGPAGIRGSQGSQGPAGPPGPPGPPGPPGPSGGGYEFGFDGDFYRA", "test": "Cryo-SEM measurement of fibril density", "details": "10:1 molar ratio, cryo-SEM 10,000×", "method": "Collagen gels were formed in the presence of each additive at a 10:1 molar ratio, as described in EXAMPLE 15, directly on the SEM stage, processed, and imaged as described. Images at 10,000× were analyzed for fibril density calculations. Images were converted to 8-bit black and white, and threshold values for each image were determined using ImageJ software (NIH). The threshold was defined as the value where all visible fibrils are white, and all void space is black. The ratio of white to black area was calculated using MatLab software. All measurements were taken in triplicate and thresholds were determined by an observer blinded to the treatment."}, "[7]": {"tested_on": "Human platelets on Type I fibrillar collagen", "test": "Inhibition of platelet activation on fibrillar collagen after 24 hour rinse (PF4, NAP2)", "type": "cell-based", "details": "50 μM, incubated 15 min, rinsed for 24 hours", "method": "Type I fibrillar collagen from Chronolog was diluted in isotonic glucose to a concentration of 50 μg/mL. 50 μL of collagen solution was added to each well of a high bind 96-well plate. The plate was incubated overnight at 4° C., and then rinsed 3× with 1×PBS. For microplate assays, peptidoglycan was diluted in 1×PBS at concentrations between 0.0001 μM to 100 μM and 50 μL solution was added to the collagen coated wells. DS, peptide, or 1×PBS were also added to collagen coated wells as controls. Treatments were incubated at 37° C. with shaking at 200 rpm for 15 min. Wells were then rinsed of unbound treatment by removing the treatment solution, adding PBS, and shaking the wells for 24 hours. During the 24 hours, PBS solution was changed 3 times.\nHuman whole blood was collected from healthy volunteers by venipuncture. The first 5 mL of blood was discarded and approximately 20 mL was then collected into citrated glass vacutainers (BD Bioscience). Blood was centrifuged in the glass tube for 20 min at 200 g at 25° C. The top layer of the centrifuged blood, the platelet rich plasma (PRP), was used for platelet experiments.\nPRP (50 μL/well) was added to the microplate for 1 hour at room temperature without shaking. After 1 hour of incubation, 45 μL of PRP was removed from each well and added to a microcentrifuge tube containing […] ETP (107 mM EDTA, 12 mM theophylline, and 2.8 mM prostaglandin E1) to inhibit further platelet activation. These tubes were spun at 4° C. for 30 min at 2000 g to pellet the platelets. The supernatant (platelet serum) was collected for ELISA studies to test for the presence of platelet activation markers PF-4 and NAP2. Sandwich ELISAs were utilized in order to detect each protein. The components for both sandwich ELISAs were purchased from R&D Systems and the provided protocols were followed. Platelet serum was diluted 10,000 times in 1% BSA in 1×PBS for values to fall within a linear range.\nPlatelet activation was measured through release of platelet factor 4 (PF4) and β-thromboglobulin (NAP2). […] Since the high SILY/DS ratio is expected to provide higher binding affinity to the collagen surface due to multiple interactions, peptidoglycans with the higher SILY/DS ratios were prepared.\nThe number of peptides per DS molecule was further increased to 18 to create the peptidoglycan DS-SILY18, and the concentration of molecule needed to inhibit platelet activation was tested. […] Within solubility limits, the number of peptides can be increased to achieve maximal platelet inhibition as well as to reduce diffusion over time, where a higher level of peptidoglycans on the denuded vessel wall is sustained."}, "[8]": {"molecular_target": "T1, collagen", "test": "Collagen fibrillogenesis by turbidity at 313 nm", "type": "biochemical", "details": "1:1 collagen:additive molar ratio", "method": "Collagen fibrillogenesis was monitored by measuring turbidity related absorbance at 313 nm providing information on rate of fibrillogenesis and fibril diameter. Gel solutions were prepared as described in EXAMPLE 15 (4 mg/mL collagen, 10:1 collagen:treatment, unless otherwise indicated) and 50 uL/well were added at 4° C. to a 384-well plate. The plate was kept at 4° C. for 4 hours before initiating fibril formation. A SpectraMax M5 at 37° C. was used to measure absorbance at 313 nm at 30 s intervals for 6 hours.\nA fibrillogenesis assay as described for DS-SILY, EXAMPLE 17, performed with the conjugate DS-Dc13."}},
  "note": "pKd: −log10 of the molar value. “Also recorded” adds a separate entry of the source. Where no end group is shown, it is not given here.",
  "data": [
    {"substance": "DS-SILY4: dermatan sulfate with 4 SILY peptides via BMPH; tested biotin labeled (RRANAALKAGELYKSILYGC-NH2; also: Cys thiol coupled via BMPH crosslinker to oxidized dermatan sulfate, 4 peptides per glycan, biotin label in tested form, position not given here)", "values": [
      {"measurement": "pKd", "setting": "[1]", "value": 6.93}
    ]},
    {"substance": "Decorin", "values": [
      {"measurement": "fibril diameter", "setting": "[2]", "value": "significantly decrease fibril diameter over collagen or collagen+DS; also recorded: significantly decrease fibril diameter over collagen or collagen+dermatan sulfate"},
      {"measurement": "gel compaction, day 7", "setting": "[3]; Day 7", "value": "significant against all samples"},
      {"measurement": "gel compaction, days 3 and 5", "setting": "[3]; Days 3 and 5", "value": "significant relative to collagen and DS"}
    ]},
    {"substance": "RRANAALKAGELYKSILYGC", "values": [
      {"measurement": "binding to collagen (association/disassociation curves)", "setting": "[4]; 100 μM to 1.5 μm in 2-fold dilutions", "value": "binds reversibly with collagen"},
      {"measurement": "pKd", "setting": "[4]; calculated from the on-off binding kinetics, collagen on CM-3 chip", "value": 5.92},
      {"measurement": "collagen degradation by hydroxyproline content in cell medium", "setting": "[5]", "value": "greater collagen degradation compared to collagen alone"},
      {"measurement": "fibril density (ratio of fibril containing area to void space)", "setting": "[6]", "value": "significantly greater fibril density"},
      {"measurement": "inhibition of platelet activation (release of PF4 and NAP2)", "setting": "[7]", "value": "little to no effect on inhibiting platelet activation"}
    ]},
    {"substance": "SYIRIADTNITGC [Dc13]", "values": [
      {"measurement": "fibrillogenesis (absorbance at 313 nm), free peptide", "setting": "[8]", "value": "little effect on fibrillogenesis compared to collagen alone"},
      {"measurement": "collagen degradation by hydroxyproline content in cell medium", "setting": "[5]", "value": "greater collagen degradation compared to collagen alone"}
    ]}
  ]
}
